Legend:
GLP-1 receptor = details: cited from earlier work
implanted tumors = experiment: Fused CT/PET imaging of tumor-bearing nude mice with 124I-labelled CC49 Fab′ conjugates; type: in vivo
Experimental: Fused PET/CT images of mice were taken of different antibody conjugates to determine their ability to localize implanted tumors (see Examples below). In particular, CC49 Fab′-S-NEM control was compared to CC49 Fab′-dPEG12-Tris(dPEG24 carboxyl)3, the CC49 Fab′ MoAb modified with one of the disclosed branched dPEGs containing terminal carboxyl groups.
• 1. sterilized, de-pyrogenated glass reaction vessel coated with IODO-GEN™ (SOP 310.0) (5-10 ml serum vials or 13 mm×100 mm test tubes) • 2. sterile, pyrogen-free phosphate buffer, 0.1 M. pH 7.2 • 3. sterile, pyrogen-free phosphate buffered saline • 4. 1 Sephadex G-25M (PD-10 disposable) column with tip • 5. Iodine-124 medium concentration, high activity, sodium iodide for protein iodination in pH=9.5, concentration—100 mCi/ml (IBA Molecular, Dulles VA) • 6. protein to be radiolabeled • 7. 10 sterilized, de-pyrogenated glass test tubes—12×75 mm • 8. 1 sterile Millex-GV 0.22 micron, 13 mm low protein binding filter unit (Millipore—cat. no: SLGV0130S) • 9. microliter pipettes (Eppendorf) • 10. sterilized plastic tips for microliter pipette • 11. parafilm—2 cm.×2 cm. • 12. close calibrator • 13. fume hood • 14. dry and wet radioactive waste containers • 15. disposable gloves • 16. lead shielding and lead containers for reaction vessel and test tubes • 17.2-5 ml. sterile, pyrogen-free syringes with needles • 18.1-3.5 in. spinal needle. Procedure • (Note: the specific activity desired will determine the quantities of protein and Iodine-124 used below.) • I. Place the desired amount of protein into the IODO-GEN™ reaction vessel. • 2. Add the desired amount of iodine-124 into the IODO-GEN™ reaction vessel. • 3. Add 50 μl of 0.1M, 7.2 pH phosphate buffer solution to reaction vessel. • 4. Cover the reaction vessel with parafilm. • 5. Incubate reaction vessel for 20 minutes with occasional swirling. • 6. Place reaction vessel into dose calibrator to determine radioactivity added. • 7. Stop reaction by removing reaction mixture from reaction vessel and placing mixture onto gel bed of Sephadex G-25M column (this separates unbound Iodine-124). • 8. Allow mixture to elute through column. (Note: the iodinated protein is collected from the column after the void volume has been eluted—approximately 2 ml). • 9. Place 1 ml phosphate buffered saline onto gel bed of Sephadex G-25M column and allow to elute through column. • 10. Place 4 ml phosphate buffered saline onto gel bed of Sephadex G-25M column and allow to elute through column. (Note: begin to collect Iodinated protein if you have not done so already). • 11. Collect fractions of 10 drops of eluted iodinated protein—total of 10 fractions. • 12. Assay the 10 fractions using the dose calibrator. • 13. Collect the fractions, which have the highest radioactivity and pool them together in a sterile, pyrogen-free syringe. • 14. Assay syringe of the collected iodinated fractions. • 15. Filter radiolabeled protein using Millex-GV 0.22 micron low protein binding filter unit into a sterile pyrogen-free syringe. • 16. Assay syringe of the filtered radiolabeled protein. • 17. Remove a sample for quality assurance procedures. Description of Animals • a. Female nude mice background, 4-5 weeks in age, were used in this project. For every 7 animals injected with tumors, 4 will actually show tumors in the useful size range. • b. The nude mice will receive 6×10^6 cells subcutaneously in 0.1 mL volumes in order to initiate tumors. • c. Nude mice are received on a routine basis from commercial sources. The mouse colony is routinely surveyed for adventitious agents by serological and histopathological procedures. Upon arrival, the mice are conditioned for up to one week and then moved into an experimental protocol. • d. The anesthetized mice are injected subcutaneously or intradermally into the flank area. For this injection, the mouse is held by a fold in the skin at the back and a 25G needle inserted through the skin. […]

TAG-72 = experiment: Competition affinity assay of CC49-Fab′-branched dPEGs; type: binding; details: Fab′-NEM defined as 1.0; single aliquots
Experimental: A competition assay was run with a series of CC49-Fab′-dPEGs. In this run, single aliquots of each compound were assayed. The affinity constant of Fab′-NEM is defined as 1.0. From the data, it is that clear that the Relative Affinity Constant, which is a measure of how well the Fab′ binds to its molecular target, is minimally impacted by conjugation to branched dPEG products.
A competition assay was run with a series of CC49-Fab′-branched dPEGs. In this run, single aliquots of each compound were assayed. The affinity constant of Fab′-NEM is defined as 1.0, and the binding constants of the branched dPEG conjugates are as follows: […]

[1] = mouse, in vivo
Description: In a different study, PK data was taken on normal athymic mice injected with: mCC49 Fab′-dPEG12-Tris(dPEG12-Tris(m-dPEG11)3)3, mCC49 Fab′-dPEG12-Tris(dPEG24-acid)3, mCC49 Fab′-dPEG12-Tris(m-dPEG24)3, and mCC49 Fab′-dPEG12-Tris(dPEG12-acid)3.
PK data was taken with additional normal female athymic mice as follows: […]

## 20 kD polymer PEG attached with two Exendin-4 molecules: "the 20 kD polymer PEG attached with two Exendin-4 molecules"; binding reduced approximately 67 times by the "shielding effect" of the linear PEG
GLP-1 receptor
  reduction of binding relative to bis-Exendin-4 without the polymeric PEG: approximately 67 times

## CC49 Fab′-S-MAL-dPEG12-Tris(m-dPEG24)3 [CC49 Fab′-dPEG12-Tris(m-dPEG24)3]
Implanted tumors; 24 hours post injection
  fused CT/PET image: tumors and background: little background
Implanted tumors; 72 hours post injection
  fused CT/PET image: tumors and background: little background

## CC49 Fab′-S-MAL-dPEG12-Tris(-dPEG12-CO2H)3 [CC49 Fab′-dPEG12-Tris(dPEG12 acid)3 (B)]
TAG-72
  Relative Affinity Constant (Ka): 0.3

## Lys^27 Exendin-4 linear polymeric PEG 2 kD: "the Lys^27 in the Exendin-4 is modified with linear polymeric PEGs of MW, 1, 2 and 5 kD"; approximately 12 times lower binding
GLP-1 receptor
  binding of Lys^27-PEGylated Exendin-4, times lower: approximately 12 times

## Lys^27 Exendin-4 linear polymeric PEG 0.5 kD: "the Lys^27 in the Exendin-4 is modified with linear polymeric PEGs of MW, 1, 2 and 5 kD"; approximately 37 times lower binding, printed "0.5 kD"
GLP-1 receptor
  binding of Lys^27-PEGylated Exendin-4, times lower: ~37 times

## two Exendin-4 molecules: "two Exendin-4 molecules in a very congested branching format"; "the bis-Exendin-4 without the large polymeric PEG"
GLP-1 receptor; two Exendin-4 molecules in branching format
  increase in the binding: 3.5 times

## CC49 Fab′-S-MAL-dPEG12-Tris(-dPEG24-CO2H)3 [CC49 Fab′-dPEG12-Tris(dPEG24 acid)3]
Implanted tumors; 5 hours post injection
  fused CT/PET image: tumors and background: good imaging of the tumors with some background evident
Implanted tumors; 24 hours post injection
  fused CT/PET image: tumors and background: the tumors were well imaged with continuing diminution of background
Implanted tumors; 48 hours post injection
  fused CT/PET image: tumors and background: virtually no background is evident
Implanted tumors; 72 hours post injection
  fused CT/PET image: tumors and background: virtually no background is evident

## CC49 Fab′-S-MAL-dPEG12-Tris(-dPEG12-Tris(m-dPEG11)3)3
TAG-72
  Relative Affinity Constant (Ka): 0.4

## m CC49 Fab′-dPEG12-Tris(dPEG12-Tris(m-dPEG11)3)3 [Fab-dPEG-D]
[1]
  clearance over time: least rapid clearance

## Lys^27 Exendin-4 linear polymeric PEG 1 kD: "the Lys^27 in the Exendin-4 is modified with linear polymeric PEGs of MW, 1, 2 and 5 kD"; binding almost the same for 1 kD
GLP-1 receptor
  binding of Lys^27-PEGylated Exendin-4, times lower: almost the same
